≈ marks a conversion by molar mass, not a printed value. Calls of active or inactive are those of the source. The rule behind the calls is not given here.
Key:
[1] = Inhibition of quorum sensing system in Pseudomonas aeruginosa PAO1 assessed as inhibition of pyocyanin production at 102.4 ug/ml incubated for 18 hrs by absorbance based assay; conditions: dose 102.4 µg/ml
Pseudomonas aeruginosa [2] = assay: Synergistic antibacterial activity against Pseudomonas aeruginosa PAO1 assessed as inhibition of bacterial growth at 1 to 256 ug/ml incubated for 24 hrs in the presence of ciprofloxacin by absorbance based microplate reader analysis; type: functional, organism-based; conditions: dose 1-256 µg/ml
Bacillus pumilus = assay: Antibacterial activity against penicillin-susceptible Bacillus pumilus CMCC63202 assessed as inhibition of bacterial growth incubated for 20 hrs by CLSI protocol based microdilution method; type: functional
Pseudomonas aeruginosa [3] = assay: Antibacterial activity against Pseudomonas aeruginosa 27853 assessed as inhibition of bacterial growth at 256 ug/ml measured after 25 hrs by absorbance based assay; type: functional, organism-based; conditions: dose 256.0 µg/ml
[4] = Inhibition of quorum sensing system in Pseudomonas aeruginosa PAO1 assessed as inhibition of rhamnolipid production at 102.4 ug/ml incubated for 24 hrs by absorbance based assay; conditions: dose 102.4 µg/ml
[5] = Hemolytic activity in mouse red blood cells assessed as hemolysis rate at 512 ug/ml incubated for 1 hrs by microplate reader analysis relative to control; type: toxicity, cell-based, Erythrocyte; conditions: red blood cells (erythrocytes), at 512 µg/mL, read-out: Activity
Pseudomonas aeruginosa [6] = assay: Antibacterial activity against penicillin-susceptible Pseudomonas aeruginosa ATCC27853 assessed as inhibition of bacterial growth incubated for 20 hrs by CLSI protocol based microdilution method; type: functional
Pseudomonas aeruginosa [7] = assay: Inhibition of biofilm formation in Pseudomonas aeruginosa PAO1 at 32 ug/ml incubated for 20 hrs by crystal violet staining based analysis; type: functional
Pseudomonas aeruginosa [8] = assay: Antibacterial activity against wild type Pseudomonas aeruginosa […] CGMCC1.12483 assessed as inhibition of bacterial growth incubated for 20 hrs by CLSI protocol based microdilution method; type: functional
Bacillus subtilis = assay: Antibacterial activity against penicillin-susceptible Bacillus subtilis ATCC9372 assessed as inhibition of bacterial growth incubated for 20 hrs by CLSI protocol based microdilution method; type: functional
Pseudomonas aeruginosa [9] = assay: Synergistic antibacterial activity against Pseudomonas aeruginosa 27853 assessed as inhibition of bacterial growth by measuring fold change in ciprofloxacin at 1 to 256 ug/ml incubated for 24 hrs by absorbance based microplate reader analysis; type: functional; conditions: dose 1-256 µg/ml
Pseudomonas aeruginosa [10] = assay: Synergistic antibacterial activity against Pseudomonas aeruginosa 27853 assessed as inhibition of bacterial growth at 1 to 128 ug/ml incubated for 24 hrs by absorbance based microplate reader analysis; type: functional, organism-based; conditions: dose 1-128 µg/ml
Staphylococcus aureus [11] = assay: Antibacterial activity against methicillin-resistant Staphylococcus aureus ATCC43300 assessed as inhibition of bacterial growth incubated for 20 hrs by CLSI protocol based microdilution method; type: functional
[12] = Inhibition of quorum sensing system in Pseudomonas aeruginosa PAO1 assessed as inhibition of protease activity at 102.4 ug/ml incubated for 24 hrs by absorbance based assay; conditions: dose 102.4 µg/ml
Staphylococcus aureus [13] = assay: Antibacterial activity against erthromycin-susceptible Staphylococcus aureus ATCC25923 assessed as inhibition of bacterial growth incubated for 20 hrs by CLSI protocol based microdilution method; type: functional
Escherichia coli = assay: Antibacterial activity against penicillin-susceptible Escherichia coli ATCC25922 assessed as inhibition of bacterial growth incubated for 20 hrs by CLSI protocol based microdilution method; type: functional
Pseudomonas aeruginosa [14] = assay: Synergistic antibacterial activity against Pseudomonas aeruginosa 27853 assessed as inhibition of bacterial growth at 1 to 256 ug/ml incubated for 24 hrs in the presence of Ciprofloxacin by absorbance based microplate reader analysis; type: functional, organism-based; conditions: dose 1-256 µg/ml
Pseudomonas aeruginosa [15] = assay: Synergistic antibacterial activity against Pseudomonas aeruginosa PAO1 assessed as inhibition of bacterial growth at 1 to 256 ug/ml incubated for 24 hrs in the presence of Clarithromycin by absorbance based microplate reader analysis; type: functional, organism-based; conditions: dose 1-256 µg/ml
Pseudomonas aeruginosa [16] = assay: Antibacterial activity against Pseudomonas aeruginosa PAO1 assessed as inhibition of bacterial growth at 256 ug/ml measured after 25 hrs by absorbance based assay; type: functional, organism-based; conditions: dose 256.0 µg/ml
Pseudomonas aeruginosa [17] = assay: Synergistic antibacterial activity against Pseudomonas aeruginosa 27853 assessed as inhibition of bacterial growth incubated for 24 hrs in the presence of Clarithromycin by absorbance based microplate reader analysis; type: functional, organism-based; conditions: dose 1-256 µg/ml
Pseudomonas aeruginosa [18] = assay: Synergistic antibacterial activity against Pseudomonas aeruginosa 27853 assessed as inhibition of bacterial growth at 256 ug/ml incubated for 24 hrs in the presence of Clarithromycin by absorbance based microplate reader analysis relative to control; type: functional
[19] = Inhibition of quorum sensing system in Pseudomonas aeruginosa PAO1 transfected with rhlA-gfp reporter assessed as inhibition of fluorescence expression incubated for >=12 hrs by microplate reader analysis; conditions: dose 32-256 µg/ml
[20] = Inhibition of quorum sensing system in Pseudomonas aeruginosa PAO1 transfected with pqsA-gfp reporter assessed as inhibition of fluorescence expression incubated for >=12 hrs by microplate reader analysis; conditions: dose 32-256 µg/ml
[21] = Inhibition of quorum sensing system in Escherichia coli MG4/pKDT17 harboring lasR gene with lasB::lacZ translation fusion assessed as inhibition of lasR translation activation by measuring inhibition of […] activity incubated for 8 hrs by absorbance based analysis; conditions: dose 32-128 µg/ml
[22] = Inhibition of quorum sensing system in Pseudomonas aeruginosa PAO1 transfected with gfp reporter gene assessed as effect on fluorescence expression at 32 to 256 ug/ml incubated for >=12 hrs by microplate reader analysis; conditions: dose 32-256 µg/ml
[23] = Inhibition of quorum sensing system in Pseudomonas aeruginosa PAO1 transfected with lasB-gfp reporter assessed as inhibition of fluorescence expression incubated for >=12 hrs by microplate reader analysis; conditions: dose 32-256 µg/ml
[24] = Inhibition of quorum sensing system in Escherichia coli pEAL08-2 harboring pqsR gene with pqsA::lacZ translation fusion assessed as inhibition of pqsA translation activation by measuring inhibition of […] activity incubated for 8 hrs by absorbance based analysis; conditions: dose 32-128 µg/ml
[25] = Inhibition of quorum sensing system in Escherichia coli pDSY harboring rhlR gene with rhlA::lacZ translation fusion assessed as inhibition of rhlA translation activation by measuring inhibition of […] activity incubated for 8 hrs by absorbance based analysis; conditions: dose 32-128 µg/ml
Pseudomonas aeruginosa [26] = assay: Synergistic antibacterial activity against Pseudomonas aeruginosa PAO1 assessed as inhibition of bacterial growth at highest concentration incubated for 24 hrs in the presence of ciprofloxacin by absorbance based microplate reader analysis relative to control; type: functional
Pseudomonas aeruginosa [27] = assay: Inhibition of biofilm formation in Pseudomonas aeruginosa PAO1 assessed as effect on biofilm morphology at 102.4 ug/ml incubated for 24 hrs by scanning electron microscopic analysis; type: functional, organism-based; conditions: dose 102.4 µg/ml
Pseudomonas aeruginosa [28] = assay: Synergistic antibacterial activity against Pseudomonas aeruginosa 27853 assessed as inhibition of bacterial growth at 256 ug/ml incubated for 24 hrs in the presence of Ciprofloxacin by absorbance based microplate reader analysis relative to control; type: functional
Pseudomonas aeruginosa [29] = assay: Synergistic antibacterial activity against Pseudomonas aeruginosa PAO1 assessed as inhibition of bacterial growth at 1 ug/ml incubated for 24 hrs in the presence of ciprofloxacin by absorbance based microplate reader analysis relative to control; type: functional
Pseudomonas aeruginosa [30] = assay: Synergistic antibacterial activity against Pseudomonas aeruginosa PAO1 infected in Kunming mouse model assessed as reduction in viable bacteria at 25 mg/kg, ip pre-infected with bacteria for 1 hrs followed by compound administration and measured after 1 hrs in the presence of ciprofloxacin; type: functional, organism-based
Pseudomonas aeruginosa [31] = assay: Antibacterial activity against Pseudomonas aeruginosa PAO1 assessed as inhibition of swarming movement at 25.6 to 102.4 ug/ml incubated for 24 hrs; type: functional, organism-based; conditions: dose 25.6-102.4 µg/ml
Staphylococcus aureus [32] = assay: Antibiofilm activity against Staphylococcus aureus ATCC33591 assessed as inhibition of biofilm formation incubated for 24 hrs by crystal violet staining based broth microdilution method; type: functional, organism-based; conditions: ATCC33591, 24 h
Enterococcus faecalis = assay: Antibiofilm activity against Enterococcus faecalis ATCC19433 assessed as inhibition of biofilm formation incubated for 24 hrs by crystal violet staining based broth microdilution method; type: functional, organism-based; conditions: ATCC19433, 24 h
Klebsiella pneumoniae = assay: Antibiofilm activity against Klebsiella pneumoniae ATCC13882 assessed as inhibition of biofilm formation incubated for 24 hrs by crystal violet staining based broth microdilution method; type: functional, organism-based; conditions: ATCC13882, 24 h

Compound: C=C1OC(=O)C(CNC(=O)c2ccc(Br)cc2)=C1c1ccc(F)cc1
- inhibition [1]: 34.7%
- Activity (Pseudomonas aeruginosa [2]): Active
- MIC (Bacillus pumilus): > 512 µg/mL
- Activity (Pseudomonas aeruginosa [3]): inactive
- inhibition [4]: 48.5%
- hemolysis at 1 h, 512 ug/ml [5]: > 2.5%
- MIC (Pseudomonas aeruginosa [6]): > 512 µg/mL
- inhibition (Pseudomonas aeruginosa [7]; dose 32.0 µg/ml): inactive
- MIC (Pseudomonas aeruginosa [8]): > 512 µg/mL
- MIC (Bacillus subtilis): 16 µg/mL (≈ 39.8 µM)
- fold change (FC) (Pseudomonas aeruginosa [9]): >=1.5
- Activity (Pseudomonas aeruginosa [10]): Active
- MIC (Staphylococcus aureus [11]): 8 µg/mL (≈ 19.9 µM)
- inhibition [12]: 8.6%
- MIC (Staphylococcus aureus [13]): > 512 µg/mL
- MIC (Escherichia coli): > 512 µg/mL
- Activity (Pseudomonas aeruginosa [14]): Active
- Activity (Pseudomonas aeruginosa [15]): Active
- Activity (Pseudomonas aeruginosa [16]): inactive
- Activity (Pseudomonas aeruginosa [17]): Dose-Dependent Effect

Compound: C=C1OC(=O)C(CNC(=O)c2ccc(F)cc2)=C1c1ccc(F)cc1
- inhibition [1]: 31.4%
- inhibition at 256 µg/mL (Pseudomonas aeruginosa [18]): 82.8%
- inhibition [19]: Dose-Dependent Effect
- Activity (Pseudomonas aeruginosa [2]): Active
- MIC (Bacillus pumilus): > 512 µg/mL
- Activity (Pseudomonas aeruginosa [3]): inactive
- inhibition [20]: Dose-Dependent Effect
- inhibition [21]: Dose-Dependent Effect
- inhibition [4]: Active
- inhibition [22]: inactive
- hemolysis at 1 h, 512 ug/ml [5]: > 2.5%
- MIC (Pseudomonas aeruginosa [6]): > 512 µg/mL
- inhibition [23]: Dose-Dependent Effect
- inhibition at 32 µg/mL (Pseudomonas aeruginosa [7]): 50.7%
- inhibition [24]: Dose-Dependent Effect
- MIC (Pseudomonas aeruginosa [8]): > 512 µg/mL
- MIC (Bacillus subtilis): > 512 µg/mL
- inhibition [25]: Dose-Dependent Effect
- inhibition (INH) (Pseudomonas aeruginosa [26]): 90.53%
- inhibition (Pseudomonas aeruginosa [27]): Active
- inhibition at 256 µg/mL (Pseudomonas aeruginosa [28]): 77.2%
- MIC (Staphylococcus aureus [11]): > 512 µg/mL
- inhibition [12]: 30.6%
- MIC (Staphylococcus aureus [13]): > 512 µg/mL
- inhibition at 1 µg/mL (Pseudomonas aeruginosa [29]): 60.5%
- MIC (Escherichia coli): > 512 µg/mL
- Activity (Pseudomonas aeruginosa [14]): Active
- Activity (Pseudomonas aeruginosa [15]): Active
- Activity (Pseudomonas aeruginosa [16]): inactive
- Activity (Pseudomonas aeruginosa [30]): Active
- Activity (Pseudomonas aeruginosa [17]): Dose-Dependent Effect
- Activity (Pseudomonas aeruginosa [31]): Active

Compound: O=C1O/C(=C\c2cc(Br)c(O)c(Br)c2)C(c2ccc(O)c(Br)c2)=C1C(=O)c1ccccc1
- IC50 (Staphylococcus aureus [32]): 0.7 µg/mL (≈ 1.13 µM)
- IC50 (Enterococcus faecalis): 3.6 µg/mL (≈ 5.8 µM)
- IC50 (Klebsiella pneumoniae): 7.5 µg/mL (≈ 12.1 µM)
